The source of these data is patent publication US7897598B2, “Inhibitors of the anandamide transporter” (priority 1998, dated 2011).

For experiment [1], the system named is anandamide transporter. Briefly: [3H]anandamide accumulation in cortical astrocytes in culture. It counts as cell-based, rat.
Experiment [2] deals with anandamide transporter. Briefly: Transport (translocation) of radioactively labeled substrates into astrocytoma cells. It is filed as cell-based, human. To be noted: radioactively labeled compound, FIG. 4 and FIG. 5.
Experiment [3] relates to anandamide transporter.
Experiment [4] deals with anandamide transporter. Nature of the experiment: [3H]anandamide transport assay, inhibition in astrocytoma cells. To be noted: for IC50: read-out: IC50, [3H]anandamide accumulation.
The test system of experiment [5] is male Swiss mice. To be noted: mouse, in vivo.
In experiment [6] the target is CB1 receptors (Homo sapiens, UniProt P21554). Briefly: Binding to CB1 receptors.
Sequence of CB1 receptors (P21554 whole entry): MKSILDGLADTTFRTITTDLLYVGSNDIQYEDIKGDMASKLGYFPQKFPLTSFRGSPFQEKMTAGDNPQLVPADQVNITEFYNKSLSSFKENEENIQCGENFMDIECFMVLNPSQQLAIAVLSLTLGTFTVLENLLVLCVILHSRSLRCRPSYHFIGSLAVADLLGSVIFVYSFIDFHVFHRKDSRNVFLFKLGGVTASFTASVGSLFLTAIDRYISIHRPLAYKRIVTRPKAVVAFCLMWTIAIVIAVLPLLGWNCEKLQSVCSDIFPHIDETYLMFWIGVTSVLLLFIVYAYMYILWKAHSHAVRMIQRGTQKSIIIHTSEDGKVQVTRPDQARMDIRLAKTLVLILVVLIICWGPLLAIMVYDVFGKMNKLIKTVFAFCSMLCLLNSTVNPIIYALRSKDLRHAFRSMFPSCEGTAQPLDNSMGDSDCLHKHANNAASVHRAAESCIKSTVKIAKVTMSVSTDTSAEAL
The subject of experiment [7] is adenylyl cyclase activity. Nature of the experiment: cAMP concentrations (adenylyl cyclase activity) in forskolin-stimulated cortical neurons. It counts as cell-based, rat.
In experiment [8] the target is T1, fatty acid amide hydrolase (FAAH) (Rattus norvegicus, UniProt P97612).
T1 construct: from tissue; host or cells: brain microsomes
T1 sequence (P97612 1-579): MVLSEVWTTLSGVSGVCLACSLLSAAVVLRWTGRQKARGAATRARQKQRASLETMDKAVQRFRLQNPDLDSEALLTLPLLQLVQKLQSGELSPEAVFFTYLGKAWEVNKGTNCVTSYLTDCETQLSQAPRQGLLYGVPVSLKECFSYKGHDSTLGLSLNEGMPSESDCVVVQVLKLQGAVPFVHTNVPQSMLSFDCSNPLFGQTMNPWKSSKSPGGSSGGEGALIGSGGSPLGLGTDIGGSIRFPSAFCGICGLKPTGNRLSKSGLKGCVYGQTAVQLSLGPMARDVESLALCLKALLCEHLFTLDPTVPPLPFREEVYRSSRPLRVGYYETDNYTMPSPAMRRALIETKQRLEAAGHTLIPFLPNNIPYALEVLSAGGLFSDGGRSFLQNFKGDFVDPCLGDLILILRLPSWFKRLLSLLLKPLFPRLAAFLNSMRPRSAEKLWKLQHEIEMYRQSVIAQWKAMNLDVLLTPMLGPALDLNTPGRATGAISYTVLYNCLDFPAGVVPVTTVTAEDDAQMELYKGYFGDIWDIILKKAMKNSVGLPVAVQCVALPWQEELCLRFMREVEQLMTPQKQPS
Nature of the experiment: FAAH activity in brain microsomes. It is filed as biochemical.

Experiment [9] deals with anandamide transporter. Briefly: [3H]anandamide accumulation in neurons. It is filed as cell-based, rat.
In experiment [10] the target is rat cerebral membranes ([3H]WIN-55212-2 binding) (Rattus norvegicus, UniProt P20272). Nature of the experiment: Binding of [3H]WIN-55212-2 to rat cerebral membranes.
Sequence of rat cerebral membranes ([3H]WIN-55212-2 binding) (P20272 whole entry): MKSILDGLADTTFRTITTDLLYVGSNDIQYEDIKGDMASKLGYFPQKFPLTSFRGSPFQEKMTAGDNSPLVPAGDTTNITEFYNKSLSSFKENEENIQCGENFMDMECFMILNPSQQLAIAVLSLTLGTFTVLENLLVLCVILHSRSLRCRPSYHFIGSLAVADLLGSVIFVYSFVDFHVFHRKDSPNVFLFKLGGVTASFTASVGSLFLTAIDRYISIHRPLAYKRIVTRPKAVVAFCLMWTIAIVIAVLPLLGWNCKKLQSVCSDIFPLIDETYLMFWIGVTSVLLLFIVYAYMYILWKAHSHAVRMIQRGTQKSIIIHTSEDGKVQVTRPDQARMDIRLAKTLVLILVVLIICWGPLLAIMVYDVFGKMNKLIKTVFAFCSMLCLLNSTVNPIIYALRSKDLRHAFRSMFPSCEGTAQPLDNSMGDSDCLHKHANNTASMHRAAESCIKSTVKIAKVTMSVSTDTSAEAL

Several values for one entry are separate records, joined by “and”; a condition that tells them apart may be missing. Equal values may be shown once. Read-outs that look alike come from different tables or passages of the source.

On to `CCCCCCCCCCCCCCCC(=O)NCCO` [palmitoyl ethanolamide, reference compound], for which the “effect on [3H]anandamide accumulation (in words)” value in experiment [1] (cortical astrocytes, WIN-55212-2 1 μM, SR-141716-A 10 μM) is reported as “not”. Besides, in [2], the “transport into cells (substrate translocation, in words)” value (“transport into cells” for short) was “not transported to any significant extent”.

For orientation: IC50 means the midpoint of a concentration-inhibition curve. In experiment [3], `CCCCCC=CCC=CCC=CCC=CCCCC(=O)NCC` had an IC50 of 48.5 ± 7.3 µM.

With `CCCCCC=CCC=CCC=CCC=CCCCC(=O)N1CCC(O)CC1`, 10 ± 0.2 µM corresponded to half-maximal inhibition in experiment [3] (IC50).

The Ki is the dissociation constant of the complex between target and ligand, obtained from inhibition or displacement. A high value points to lower affinity. Consider `CCCCC/C=C\C/C=C\C/C=C\C/C=C\CCCC(=O)Nc1ccc(O)cc1` [AM404, N-(4-hydroxyphenyl)-arachidonamide], for which the “competition with [3H]anandamide for transport / uptake inhibition (in words)” value in experiment [4] is listed as “the most potent competitor in our series”. In experiment [4] (human astrocytoma cells), the IC50 stood at 2.2 ± 0.2 µM. In addition, in experiment [5], the “antinociceptive effect alone (in words)” value is given as “no antinociceptive effect”; the “effect on anandamide-induced analgesia (in words)” value was “significantly enhanced and prolonged”. Moreover, in experiment [6], the inhibition constant Ki came to 1.8 µM. Also, in experiment [7], the “cAMP, % of forskolin alone” value is 89.8±2.6% and 84.4±4.9%; the “decrease of anandamide threshold, factor” value stood at 1.100; the “effect on cAMP concentrations when applied alone” value was “did not reduce cAMP concentrations”; the “enhancement of the anandamide response on cAMP (in words)” value (from here on “enhancement of the anandamide response”) is recorded as “almost maximal effect”. Moreover, the “increase of anandamide potency, factor” value in [7] turned out to be 10.

The molecule `CCCCCC=CCC=CCC=CCC=CCCC(C)(C)C(=O)NCC(C)O` (centres unmarked) [drawing 21] showed a 50% inhibitory concentration (IC50) in experiment [3] of 33.2 ± 4.2 µM.

Take `Cc1c(C(=O)c2cccc3ccccc23)c2cccc3c2n1[C@H](CN1CCOCC1)CO3` [WIN-55212-2, reference compound]: the “effect on [3H]anandamide accumulation (in words)” value in [1] is recorded as “no effect”. Also, in experiment [7], the “cAMP, % of forskolin alone” value is on record as 96.7±2.5%.

Molecule `CCCCCC=CCC=CCC=CCC=CCCC(C)(C)C(=O)NCCO` came in with a concentration for half-maximal inhibition (IC50) in [3] of 7.6 ± 1.2 µM.

As for `CCCCCCCC/C=C\CCCCCCCC(=O)NCCO` [oleylethanolamide], the “transport into cells” value in experiment [2] is on record as “not transported at all”.

In [3], `CCCCCC=CCC=CCC=CCC=CCCCC(=O)OCC(O)CO` (centres unmarked) displayed an IC50 of 48.5 ± 8.1 µM.

With `CCCCCC=CCC=CCC=CCC=CCCCC(N)=O`, the midpoint of inhibition in experiment [3], the IC50, lay at 9 ± 2 µM.

As to `CCCCCC=CCC=CCC=CCC=CCCCC(=O)NC(C)CO` (centres unmarked) [drawing 12], the IC50 in experiment [3] is 37.7 ± 0.7 µM.

In the case of cis-eicosaenoylethanoladide, in experiment [2], the “transport into cells” value is on record as “not transported at all”.

Take `Cc1c(C2(c3cc(Br)c(O)c(Br)c3C)OS(=O)(=O)c3ccccc32)cc(Br)c(O)c1Br` [bromcresol green]: the “mode of inhibition of [3H]anandamide accumulation” value in experiment [1] is given as “noncompetitively”. The IC50 in [1] (astrocytes) was found to be 12 µM; in experiment [9], 4 µM. In experiment [8], the “effect on FAAH activity” value is reported as “no significant effect”. Also, the “cAMP, % of forskolin alone” value in experiment [7] (10 μM inhibitor in the presence of WIN-55212-2 1 nM, n=3) was 92.9±2.3%; in experiment [7] (inhibitor in the presence of glutamate 3 μM, n=3), 84.4±3%. In experiment [7] (anandamide 0.3 μM, inhibitors 10 μM, SR-141716-A 1 μM), the “enhancement of the anandamide response” value was “less effective”. For the same molecule, the “effect on binding of [3H]WIN-55212-2” value in [10] is given as “no significant effect”.

`CCCCC/C=C\C/C=C\C/C=C\C/C=C\CCCC(=O)Nc1cccc(O)c1` [AM403, N-(3-hydroxyphenyl)-arachidonamide]: in experiment [4] (human astrocytoma cells, ratio of IC50), the “times less effective than N-(4-hydroxyphenyl)-arachidonamide” value was 10 times. For the same molecule, in [4] (human astrocytoma cells), the IC50 stood at 21.3 ± 3.4 µM. In experiment [7], the “cAMP, % of forskolin alone” value amounted to 92.4±2.3% and the “enhancement of the anandamide response” value is on record as “less effective”.

For the molecule `CCCCCCCC/C=C\CCCCCCCC(=O)NCCO` [drawing 6], in [3], half-maximal inhibition (IC50) required 10.5 ± 1.2 µM.

For cis-eicosatrienoylethanolamide, the “transport into cells” value in experiment [2] is “transported very slowly”.

On to `CCCCCC=CCC=CCC=CCC=CCCCC(=O)N1CCC(O)C1` (centres unmarked), for which inhibition in experiment [3] was half-maximal at 15.3 ± 3 µM (IC50).

As for `N[C@@H](CCC(=O)O)C(=O)O` [glutamate, reference compound], the “cAMP, % of forskolin alone” value in experiment [7] stood at 91.6±2%.

Molecule `CCCCCC=CCC=CCC=CCC=CCCCC(=O)NC(C)CO` (centres unmarked) [drawing 13] returned an IC50 in experiment [3] of 10.4 ± 1.2 µM.

For the molecule `CCCCC/C=C\C/C=C\C/C=C\C/C=C\CCCC(=O)NCCO` [anandamide, Arachidonyl ethanolamide], in experiment [5], the latency to jump worked out at 30.7 ± 0.8 s and the “time after injection at which analgesia disappeared” value is listed as 60 min. The molecule further showed an IC50 in experiment [3] of 15.1 ± 3 µM.

Consider `CCCCCC=CCC=CCC=CCC=CCCCC(=O)N1CCCC(O)C1` (centres unmarked), for which the IC50 in [3] is 15 µM.

In experiment [3], `CCCCC/C=C\C/C=C\C/C=C\CCCCCCC(=O)NCCO` displayed an IC50 of 13 ± 3.6 µM.

Take `CCCCCC=CCC=CCC=CCC=CCCCC(=O)N1CCOCC1`: the IC50 in experiment [3] was found to be 25 µM.

Regarding cis-eicosadienoylethanolamide, the “transport into cells” value in experiment [2] is given as “transported very slowly”.

`CCCCCC=CCC=CCC=CCC=CCCC(C)(C)C(=O)NCC(C)O` (centres unmarked) [drawing 22]: the IC50 in experiment [3] came to 16.5 ± 1 µM.

`CCCCCC=CCC=CCC=CCC=CCCCC(=O)OC(CO)CO`: in experiment [3], the IC50 came to 18.5 ± 0.7 µM.

For the molecule `CCCCCCCC/C=C\CCCCCCCCCC(=O)NCCO`, the 50% inhibitory concentration (IC50) in experiment [3] was 14.1 ± 1.2 µM.

`CCCCC/C=C\C/C=C\C/C=C\C/C=C\CCCC(N)=O` [arachidonamide]: the “competition with [3H]anandamide for transport / uptake inhibition (in words)” value in [4] was “compete with anandamide for uptake”. Also, the “transport into cells” value in [2] is recorded as “effectively transported into cells”.

Regarding `CCCCC[C@H](O)/C=C/[C@H]1[C@H](O)CC(=O)[C@@H]1C/C=C\CCCC(=O)O` [PGE2, prostaglandin E2], the “effect on [3H]anandamide accumulation (in words)” value in experiment [1] is “inability”.
